Read-outs that look alike come from different tables or passages of the source.

Assay [1] addresses T1, human Topo I (Homo sapiens, UniProt P11387).
T1 construct: gene TOP1
T1 sequence (P11387 2-765): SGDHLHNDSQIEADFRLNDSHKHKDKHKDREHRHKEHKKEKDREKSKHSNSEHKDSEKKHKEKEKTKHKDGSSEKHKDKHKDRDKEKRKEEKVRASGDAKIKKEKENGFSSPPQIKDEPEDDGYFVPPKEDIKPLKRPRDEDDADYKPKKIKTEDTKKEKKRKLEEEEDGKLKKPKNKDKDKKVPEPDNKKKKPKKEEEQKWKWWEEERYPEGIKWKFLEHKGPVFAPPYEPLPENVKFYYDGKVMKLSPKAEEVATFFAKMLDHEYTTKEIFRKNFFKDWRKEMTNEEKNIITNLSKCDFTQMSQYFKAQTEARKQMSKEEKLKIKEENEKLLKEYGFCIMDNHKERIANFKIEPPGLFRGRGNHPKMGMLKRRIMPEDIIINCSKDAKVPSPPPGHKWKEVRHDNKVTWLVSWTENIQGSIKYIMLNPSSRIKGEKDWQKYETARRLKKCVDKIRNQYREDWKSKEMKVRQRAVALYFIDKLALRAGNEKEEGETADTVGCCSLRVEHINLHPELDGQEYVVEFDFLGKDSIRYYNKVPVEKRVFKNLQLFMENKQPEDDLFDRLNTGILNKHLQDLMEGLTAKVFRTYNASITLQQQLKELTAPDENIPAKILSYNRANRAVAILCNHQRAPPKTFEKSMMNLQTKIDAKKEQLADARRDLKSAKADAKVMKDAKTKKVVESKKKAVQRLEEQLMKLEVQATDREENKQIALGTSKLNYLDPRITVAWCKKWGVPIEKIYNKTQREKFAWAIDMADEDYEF
The assay can be described thus: Human Topoisomerase I relaxation high-throughput plate assay (fluorescent DNA stain). Type of assay: biochemical.

The test system of assay [2] is nicked decamer 2B (DNA, duplex, nick between T5 and G6) GCGTT/GTCGC/GCGACAACGC
In words: MALDI-ToF MS. To be noted: covalent; alkylated product m/z 7296.2 in reaction mother liquor.

Assay [3] has the same test system. The assay can be described thus: NOESY/TOCSY NMR. Conditions: 25 mM NaCl, 25 mM K3PO4; D2O, pH 6, 298 K; stacking at the nick, intermolecular NOEs.
For assay [4] the test system is unchanged. In words: DOSY NMR diffusion. Conditions: 25 mM NaCl, 25 mM K3PO4; D2O, pH 6, 298 K; 0.33 mM each; single-point from diffusion coefficients.

Take `CCc1c2c(nc3ccc(O)cc13)-c1cc3c(c(=O)n1C2)COC(=O)[C@]3(O)CC` [SN38, reference compound]: the IC50 in assay [1] (read-out: SN38) is 7.37 ± 7.1 µM.

As to `CCc1c2c(nc3ccc(O)c(CNCCO)c13)-c1cc3c(c(=O)n1C2)COC(=O)[C@]3(O)CC` [compound 1, 7-ethyl-9-[N-(2′-hydroxyethyl)amino]methyl-10-hydroxycamptothecin], the IC50 in assay [1] was 1.73 ± 0.48 µM. In addition, the binding entry in assay [2] and in assay [3] was “yes” each time. In addition, in assay [4], the Ka turned out to be 746.0 mM⁻¹.
